Values quoted from earlier work in patent publication US20230285483A1, “TINCTURE CONTAINING CANNABINOIDS, METHOD OF USING, AND METHOD OF MAKING THE SAME” (priority 2022, published 2023).

Experiments:
[1] = biological target: spike proteins found on the virus (Severe acute respiratory syndrome coronavirus 2, UniProt P0DTC2); conditions: study by researchers at Oregon State University
coronavirus = conditions: study by researchers at Oregon State University

SMILES | binding to spike proteins found on the virus [1] | blocking of a step the pathogen uses to infect people (coronavirus)
C=C(C)[C@@H]1CCC(C)=C[C@H]1c1c(O)cc(CCCCC)c(C(=O)O)c1O [CBDa, cannabidiolic acid] | bind to spike proteins | blocked a step the pathogen uses to infect people
CCCCCc1cc(O)c(C/C=C(\C)CCC=C(C)C)c(O)c1C(=O)O [CBGa, cannabigerolic acid] | bind to spike proteins | blocked a step the pathogen uses to infect people
